Results: patent US20110152333A1, “3-CYANOPYRROLIDINYL-PHENYL-OXAZOLIDINONES AS ANTIBACTERIAL AGENTS” (FERRER INTERNACIONAL, S.A., priority 2008, published 2011)
Converted amounts (≈) assume the structure as drawn. Read-outs that look alike come from different tables or passages of the source.

Columns and labels:
S. aureus ATCC25923 MS = test: MIC, micro dilution (NCCLS M7-A5); format: cell-based, Staphylococcus aureus
[1] = tested on: S. pneumoniae ATCC49619 PR; test: MIC, micro dilution (NCCLS M7-A5); format: cell-based, Streptococcus pneumoniae
E. faecium ATCC51559 MDR = test: MIC, micro dilution (NCCLS M7-A5); format: cell-based, Enterococcus faecium
S. aureus LNZ-R 432 = test: MIC, micro dilution (NCCLS M7-A5); format: cell-based; settings: Staphylococcus aureus, LNZR432, Table 1
H. influenzae ATCC49247 = test: MIC, micro dilution (NCCLS M7-A5); format: cell-based, Haemophylus influenzae; settings: Haemophilus influenzae, Table 1
[2] = tested on: B. fragilis sp. fragilis ATCC25285; test: MIC, micro dilution (NCCLS M7-A5); format: cell-based; settings: Bacteroides fragilis, Table 1, Brucella Blood medium for anaerobic strains
[3] = tested on: Moraxella catarrhalis HCI-78; test: MIC, micro dilution (NCCLS M7-A5); format: cell-based; settings: HCI78, Table 1, 5% CO2
E. faecium LNZ-R LR-4 = test: MIC, micro dilution (NCCLS M7-A5); format: cell-based, Enterococcus faecium
[4] = tested on: S. aureus clinical strain cfr. methylase; test: MIC, micro dilution (NCCLS M7-A5); format: cell-based; settings: Staphylococcus aureus, Table 2
S. aureus 1199 = test: MIC, micro dilution (NCCLS M7-A5); format: cell-based; settings: Staphylococcus aureus, Table 2
S. aureus 199B = test: MIC, micro dilution (NCCLS M7-A5); format: cell-based; settings: Staphylococcus aureus, Table 2
MRSE = test: MIC, micro dilution (NCCLS M7-A5); format: cell-based; settings: Staphylococcus epidermidis, Table 2
MRSE-128 = test: MIC, micro dilution (NCCLS M7-A5); format: cell-based; settings: Table 2
S. Haemolyticus = test: MIC, micro dilution (NCCLS M7-A5); format: cell-based; settings: Staphylococcus haemolyticus, Table 2
E. faecalis ECFL-1 = test: MIC, micro dilution (NCCLS M7-A5); format: cell-based; settings: Enterococcus faecalis, ECFL1, Table 2
E. faecalis ECFL-1-128 = test: MIC, micro dilution (NCCLS M7-A5); format: cell-based; settings: Enterococcus faecalis, ECFL1128, Table 2
E. faecalis ECFL-2 = test: MIC, micro dilution (NCCLS M7-A5); format: cell-based; settings: Enterococcus faecalis, ECFL2, Table 2
E. faecium ECFM-1 = test: MIC, micro dilution (NCCLS M7-A5); format: cell-based; settings: Enterococcus faecium, ECFM1, Table 2
E. faecium ECFM-1-128 = test: MIC, micro dilution (NCCLS M7-A5); format: cell-based; settings: Enterococcus faecium, ECFM1128, Table 2
E. faecium ECFM-2 = test: MIC, micro dilution (NCCLS M7-A5); format: cell-based; settings: Enterococcus faecium, ECFM2, Table 2
Staphyl. = test: Geometric mean MIC, staphylococci; format: cell-based; settings: Table 2, read-out: Geom. Mean MIC Staphyl.
Enteroc. = test: Geometric mean MIC, enterococci; format: cell-based; settings: Table 2, read-out: Geom. Mean MIC Enteroc.
[5] = tested on: S. aureus ATCC33591 in vivo; test: MIC, micro dilution (NCCLS M7-A5); format: cell-based; settings: Staphylococcus aureus, Table 2
[6] = tested on: S. pneumoniae ATCC6303 in vivo; test: MIC, micro dilution (NCCLS M7-A5); format: cell-based; settings: Streptococcus pneumoniae, Table 2
S. aureus ATCC43300 MR = test: MIC, micro dilution (NCCLS M7-A5); format: cell-based; settings: Staphylococcus aureus, Table 2
[7] = tested on: S. aureus 1199B NorA overE; test: MIC, micro dilution (NCCLS M7-A5); format: cell-based; settings: Staphylococcus aureus
[8] = tested on: S. epidermidis ATCC12228 MR; test: MIC, micro dilution (NCCLS M7-A5); format: cell-based; settings: Staphylococcus epidermidis, Table 2
E. faecalis ATCC29212 = test: MIC, micro dilution (NCCLS M7-A5); format: cell-based; settings: Enterococcus faecalis, Table 2
[9] = tested on: E. faecalis ATCC51575 MDR; test: MIC, micro dilution (NCCLS M7-A5); format: cell-based; settings: Enterococcus faecalis, Table 2
E. faecium ATCC10541 = test: MIC, micro dilution (NCCLS M7-A5); format: cell-based; settings: Enterococcus faecium, Table 2
E. coli TG1 = test: MIC, micro dilution (NCCLS M7-A5); format: cell-based; settings: Escherichia coli, Table 2
E. coli KAM-3 = test: MIC, micro dilution (NCCLS M7-A5); format: cell-based; settings: Escherichia coli, KAM3, Table 2
Gram+ = test: Geometric mean MIC, Gram+; format: cell-based; settings: Table 2, read-out: Geom. Mean MIC Gram+
[10] = tested on: Moraxella, Pasteurella and Bacteroides spp.; settings: background; cited from earlier work
[11] = Staphylococcus aureus, Table 1, read-out: MIC
[12] = Streptococcus pneumoniae, Table 1, 5% CO2, read-out: MIC
[13] = Enterococcus faecium, Table 1, read-out: MIC
[14] = Enterococcus faecium, Table 2, read-out: MIC

With `CC(=O)NC[C@H]1CN(c2ccc(N3CCC(C#N)C3)c(F)c2)C(=O)O1` (stereo partly drawn) [Ex. 1, N-{(5S)-3-[3-fluoro-4-(3-cyanopyrrolidin-1-yl)phenyl]-2-oxo-5-oxazolidinylmethyl}acetamide] the MIC (S. aureus ATCC25923 MS; [11]) was 0.5 mg/L (≈ 1.44 µM), the MIC (S. aureus ATCC25923 MS; Table 2) was 0.5 mg/L (≈ 1.44 µM) and the MIC [1, 12] was 0.25 mg/L (≈ 0.722 µM). The MIC ([1]; Table 2) was 0.25 mg/L (≈ 0.722 µM), the MIC (E. faecium ATCC51559 MDR; [13]) was 0.25 mg/L (≈ 0.722 µM) and the MIC (E. faecium ATCC51559 MDR; Table 2) was 0.25 mg/L (≈ 0.722 µM). For the same compound, the MIC (S. aureus LNZ-R 432) was 4 mg/L (≈ 11.5 µM), the MIC (H. influenzae ATCC49247) was 4 mg/L (≈ 11.5 µM) and the MIC [2] was 0.5 mg/L (≈ 1.44 µM). For the same compound, the MIC [3] was 2 mg/L (≈ 5.77 µM), the MIC (E. faecium LNZ-R LR-4; [13]) was 8 mg/L (≈ 23.1 µM) and the MIC (E. faecium LNZ-R LR-4; Table 2) was 8 mg/L (≈ 23.1 µM). For the same compound, the MIC [4] was 4 mg/L (≈ 11.5 µM), the MIC (S. aureus 1199) was 1 mg/L (≈ 2.89 µM) and the MIC (S. aureus 199B) was 1 mg/L (≈ 2.89 µM). The MIC (MRSE) was 0.25 mg/L (≈ 0.722 µM), the MIC (MRSE-128) was 8 mg/L (≈ 23.1 µM) and the MIC (S. Haemolyticus) was 8 mg/L (≈ 23.1 µM). It also gave an MIC (E. faecalis ECFL-1) of 0.125 mg/L (≈ 0.361 µM), an MIC (E. faecalis ECFL-1-128) of 32 mg/L (≈ 92.4 µM) and an MIC (E. faecalis ECFL-2) of 1 mg/L (≈ 2.89 µM). For the same compound, the MIC (E. faecium ECFM-1) was 0.5 mg/L (≈ 1.44 µM), the MIC (E. faecium ECFM-1-128) was 32 mg/L (≈ 92.4 µM) and the MIC (E. faecium ECFM-2) was 0.5 mg/L (≈ 1.44 µM). The MIC (Staphyl.) was 0.4 mg/L (≈ 1.15 µM), the MIC (Enteroc.) was 0.3 mg/L (≈ 0.866 µM) and the MIC [5] was 0.25 mg/L (≈ 0.722 µM). For the same compound, the MIC [6] was 0.25 mg/L (≈ 0.722 µM), the MIC (S. aureus ATCC43300 MR) was 0.5 mg/L (≈ 1.44 µM) and the MIC [7] was 0.5 mg/L (≈ 1.44 µM). The MIC [8] was 0.25 mg/L (≈ 0.722 µM), the MIC (E. faecalis ATCC29212) was 0.25 mg/L (≈ 0.722 µM) and the MIC [9] was 0.25 mg/L (≈ 0.722 µM). The MIC (E. faecium ATCC10541) was 0.25 mg/L (≈ 0.722 µM), the MIC (E. coli TG1) was 32 mg/L (≈ 92.4 µM) and the MIC (E. coli KAM-3) was 1 mg/L (≈ 2.89 µM).

For `CC(=O)NC[C@H]1CN(c2ccc(N3CCC(O)C3)c(F)c2)C(=O)O1` (stereo partly drawn) [Ex. 5, (S)—N-[[3-[4-(3-hydroxypyrrolidinyl)-3-fluorophenyl]-2-oxo-5-oxazolidinyl]methyl]acetamide, reference compound], the MIC (S. aureus ATCC25923 MS; Staphylococcus aureus, Table 2, read-out: MIC) was 2 mg/L (≈ 5.93 µM), the MIC ([1]; Streptococcus pneumoniae, Table 2, read-out: MIC) was 1 mg/L (≈ 2.96 µM) and the MIC (E. faecium ATCC51559 MDR; [14]) was 1 mg/L (≈ 2.96 µM). The MIC (E. faecium LNZ-R LR-4; [14]) was 32 mg/L (≈ 94.9 µM), the MIC [4] was 16 mg/L (≈ 47.4 µM) and the MIC (S. aureus 1199) was 2 mg/L (≈ 5.93 µM). The MIC (S. aureus 199B) was 2 mg/L (≈ 5.93 µM), the MIC (MRSE) was 1 mg/L (≈ 2.96 µM) and the MIC (MRSE-128) was 32 mg/L (≈ 94.9 µM). It also gave an MIC (S. Haemolyticus) of 32 mg/L (≈ 94.9 µM), an MIC (E. faecalis ECFL-1) of 2 mg/L (≈ 5.93 µM) and an MIC (E. faecalis ECFL-1-128) of 64 mg/L (≈ 190 µM). It also gave an MIC (E. faecalis ECFL-2) of 4 mg/L (≈ 11.9 µM), an MIC (E. faecium ECFM-1) of 2 mg/L (≈ 5.93 µM) and an MIC (E. faecium ECFM-1-128) of 64 mg/L (≈ 190 µM). For the same compound, the MIC (E. faecium ECFM-2) was 2 mg/L (≈ 5.93 µM), the MIC (Staphyl.) was 1.2 mg/L (≈ 3.56 µM) and the MIC (Enteroc.) was 1.7 mg/L (≈ 5.04 µM). For the same compound, the MIC (Gram+) was 1.4 mg/L (≈ 4.15 µM), the MIC [5] was 2 mg/L (≈ 5.93 µM) and the MIC [6] was 0.5 mg/L (≈ 1.48 µM). The MIC (S. aureus ATCC43300 MR) was 1 mg/L (≈ 2.96 µM), the MIC [7] was 1 mg/L (≈ 2.96 µM) and the MIC [8] was 1 mg/L (≈ 2.96 µM). For the same compound, the MIC (E. faecalis ATCC29212) was 2 mg/L (≈ 5.93 µM), the MIC [9] was 2 mg/L (≈ 5.93 µM) and the MIC (E. faecium ATCC10541) was 2 mg/L (≈ 5.93 µM). For the same compound, the MIC (E. coli TG1) was 64 mg/L (≈ 190 µM) and the MIC (E. coli KAM-3) was 4 mg/L (≈ 11.9 µM).

`CC(=O)NC[C@H]1CN(c2ccc(N3CCOCC3)c(F)c2)C(=O)O1` [Linezolid, N-[[(5S)-3-[3-fluoro-4-(4-morpholinyl)phenyl]-2-oxo-5-oxazolidinyl]methyl]acetamide, reference compound] gave an MIC (S. aureus ATCC25923 MS; [11]) of 1 mg/L (≈ 2.96 µM), an MIC [1, 12] of 1 mg/L (≈ 2.96 µM) and an MIC (E. faecium ATCC51559 MDR; [13]) of 0.5 mg/L (≈ 1.48 µM). The MIC (S. aureus LNZ-R 432) was 16 to 32 mg/L (≈ 47.4 to 94.9 µM), the MIC (H. influenzae ATCC49247) was 16 mg/L (≈ 47.4 µM) and the MIC [2] was 2 mg/L (≈ 5.93 µM). The MIC [3] was 2 mg/L (≈ 5.93 µM), the MIC (E. faecium LNZ-R LR-4; [13]) was 64 mg/L (≈ 190 µM) and the MICs [10] was 2 to 8 µg/mL.
